{"source": "paper PMC5923269", "about": "“The Ustilago maydis repetitive effector Rsp3 blocks the antifungal activity of mannose-binding maize proteins” (Nature Communications, 2018)", "molecular_target": "T1, AFP1 (Anti-Fungal Protein 1; AFP1-His) (Zea mays, UniProt B4FUR2)", "T1 construct": "full-length with own signal peptide, secreted; C-terminal His tag; transient expression in Nicotiana benthamiana, NTA-purified from apoplastic fluid; two DUF26 domains", "T1 sequence (B4FUR2 26-268)": "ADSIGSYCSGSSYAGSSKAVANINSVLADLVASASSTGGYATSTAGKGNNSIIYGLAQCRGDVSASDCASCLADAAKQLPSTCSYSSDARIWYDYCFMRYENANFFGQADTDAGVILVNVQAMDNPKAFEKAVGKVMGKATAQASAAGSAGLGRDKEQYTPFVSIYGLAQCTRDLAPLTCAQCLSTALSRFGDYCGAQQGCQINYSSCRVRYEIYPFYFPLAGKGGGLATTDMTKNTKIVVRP", "assay": "pull-down on mannose-agarose beads, anti-His western blot", "format": "binding", "conditions": "mannose immobilised on agarose; 10 mM Tris-HCl pH 7.5, 20 mM CaCl2, 1 M NaCl, 0.05% Tween-20, 4 °C, 1 h", "data": [{"smiles": "OC[C@H]1OC(O)[C@@H](O)[C@@H](O)[C@@H]1O", "note": "(stereo partly shown) [mannose]", "values": [{"measurement": "pull-down on mannose-agarose beads, anti-His western blot", "value": "strong binding was observed for wild type AFP1-His"}]}]}
